In patent US11141455B2, “Peptide analogues with branched amino acid probe(s)” (priority 2014, dated 2021):
Where a SMILES comes first, the peptide text is derived from it.

What was measured:
[1] = biological target: T1, recombinant human type 2 Formyl peptide receptor (FPR2) (Homo sapiens, UniProt P25090); test: Aequorin light emission agonist assay in recombinant FPR2 cells; assay type: cell-based; settings: at the highest tested dose; read-out: maximal agonist activity, % of max response of internal control Trp-Lys-Tyr-Met-Val-Met
T1 construct: expressed in transfected cells
T1 sequence (P25090 1-351): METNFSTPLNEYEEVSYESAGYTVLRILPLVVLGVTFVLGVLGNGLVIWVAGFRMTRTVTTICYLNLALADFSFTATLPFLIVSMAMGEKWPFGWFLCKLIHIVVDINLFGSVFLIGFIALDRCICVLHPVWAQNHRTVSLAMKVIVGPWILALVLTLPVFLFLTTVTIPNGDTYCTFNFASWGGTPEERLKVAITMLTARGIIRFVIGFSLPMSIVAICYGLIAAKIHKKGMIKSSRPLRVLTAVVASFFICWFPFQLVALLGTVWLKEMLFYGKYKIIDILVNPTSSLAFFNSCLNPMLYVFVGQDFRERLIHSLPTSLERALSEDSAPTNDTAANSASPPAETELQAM
Method: Recombinant cells co-expressing mitochondrial apoaequirin and recombinant human type 2 Formyl peptide receptor (FPR2) were grown for 18 hours prior to testing in media without antibiotics were detached by gentle flushing with PBS-EDTA (5 mM EDTA), recovered by centrifugation and re-suspended in assay buffer (DHEM/HAM's F12 with HEPES and 0.1% protease free BSA). Cells were then incubated for at least 4 hours at room temperature coelenterazine h (from Molecular Probes) before DR studies were conducted.
50 μl of cell suspension was injected on 50 μl of the test or control compound (solubilized in PBS/0.5% BSA and finally diluted from a stock solution of 1 mM) at increasing concentrations in 96 wells plates and then incubated 30 min at room temperature. The resulting light emission was recorded using the Hamamatsu functional drug Screening system 6000 (FDSS6000). For standardization of emission of recorded light across plates and between experiments 100 μM digitonin or 20 μM ATP were added to some of the wells.
The test compounds were tested in a concentration range from 10^−11 to 10^−5M
Data is presented as mean values.

[2] = biological target: T2, human GLP-1 receptor (Homo sapiens, UniProt P43220); test: cAMP production (HTRF) in CHO-K1 cells expressing GLP-1 receptor; assay type: cell-based; settings: CHO-K1; read-out: Max efficacy in % of control peptide
T2 construct: expressed in transfected cells; host or cells: CHO-K1 cells
T2 sequence (P43220 24-463): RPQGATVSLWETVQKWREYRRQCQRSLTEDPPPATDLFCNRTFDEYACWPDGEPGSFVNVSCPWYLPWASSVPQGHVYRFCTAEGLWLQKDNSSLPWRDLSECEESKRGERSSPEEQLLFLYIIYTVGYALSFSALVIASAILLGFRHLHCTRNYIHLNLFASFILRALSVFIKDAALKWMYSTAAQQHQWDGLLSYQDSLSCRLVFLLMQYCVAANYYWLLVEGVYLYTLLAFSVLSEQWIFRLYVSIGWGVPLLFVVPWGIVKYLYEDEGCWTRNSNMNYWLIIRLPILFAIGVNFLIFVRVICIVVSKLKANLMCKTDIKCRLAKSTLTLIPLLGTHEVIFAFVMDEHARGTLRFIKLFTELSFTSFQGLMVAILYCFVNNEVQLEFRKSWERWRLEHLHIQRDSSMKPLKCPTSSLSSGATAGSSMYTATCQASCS

[3] = biological target: T3, MC3r (Homo sapiens, UniProt P41968); test: Radioligand binding, displacement of 125I-NDP-αMSH (Cerep); settings: Example 2, α-MSH analogues
T3 construct: 0959 (cAMP); host or cells: CHO cells
T3 sequence (P41968 whole entry): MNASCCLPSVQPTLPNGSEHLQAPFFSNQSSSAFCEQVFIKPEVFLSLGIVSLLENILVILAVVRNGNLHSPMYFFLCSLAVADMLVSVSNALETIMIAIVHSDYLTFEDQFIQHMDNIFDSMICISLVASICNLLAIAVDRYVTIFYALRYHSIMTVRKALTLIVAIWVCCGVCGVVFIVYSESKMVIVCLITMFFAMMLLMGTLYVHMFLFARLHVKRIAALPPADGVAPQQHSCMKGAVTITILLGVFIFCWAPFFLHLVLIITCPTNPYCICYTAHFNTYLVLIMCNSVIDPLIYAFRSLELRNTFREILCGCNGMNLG
Method: Murine B16-F1 cells expressing MCr1 are used for determination of binding affinity to and agonist activity against the MC1r. Human recombinant CHO cells expressing MC3r, MC4r or MC5r are used for determination of affinity to or agonist activity against the MC3r, MC4r and MC5r, respectively. […] The test items are tested in a concentration range of 10^−13 to 10^−5M.

Emax [1] [%]	Emax [2] [%]	Ki [3] [nM]	Structure (SMILES)
85	–	–	CSCC[C@H](NC(=O)[C@H](C)NC(C)=O)C(=O)N[C@H](C(=O)N[C@@H](CO)C(=O)N[C@@H](CCC(=O)O)C(=O)N[C@@H](Cc1ccccc1)C(=O)N[C@@H](CC(C)C)C(=O)N[C@@H](CCCCNC(=O)[C@H](CCCCN)NC(=O)[C@H](CCCCNC(=O)[C@H](CCCCN)NC(C)=O)NC(C)=O)C(=O)N[C@@H](CCC(N)=O)C(=O)N[C@@H](C)C(=O)N[C@@H](Cc1c[nH]c2ccccc12)C(N)=O)C(C)C [analogue 7] (HELM PEPTIDE1{[ac].A.M.V.S.E.F.L.K.Q.A.W.[am]}|PEPTIDE2{[CC(=O)N[C@@H](CCCCN)C(=O)NCCCC[C@H](NC(C)=O)C(=O)[*:2]].K}$PEPTIDE1,PEPTIDE2,9:R3-2:R2$$$V2.0)
–	101	24	CSCC[C@H](NC(=O)[C@H](CO)NC(=O)[C@H](Cc1ccc(O)cc1)NC(=O)[C@H](CO)NC(=O)[C@H](CCCCNC(=O)[C@H](CCCCN)NC(=O)[C@H](CCCCN)NC(C)=O)NC(C)=O)C(=O)N[C@@H](CCC(=O)O)C(=O)N[C@@H](Cc1c[nH]cn1)C(=O)N[C@@H](Cc1ccccc1)C(=O)N[C@@H](CCCNC(=N)N)C(=O)N[C@@H](Cc1c[nH]c2ccccc12)C(=O)NCC(=O)N[C@@H](CCCCN)C(=O)N1CCC[C@H]1C(=O)N[C@H](C(N)=O)C(C)C [Analogue 1]
